{"source": "patent US5932555A", "about": "(priority 1997, dated 1999)", "key": {"[1]": {"settings": "prior art, depending on case; cited from earlier work"}, "[2]": {"tested_on": "rejection of the transplant", "settings": "as an immunosuppressive agent, prior art; cited from earlier work"}, "CDF1 mice": {"tested_on": "CDF1 mice", "assay": "Repeated administration toxicity test (intraperitoneal)", "format": "in vivo, mouse (CDF1)", "settings": "for Body weight, Day 0: Day 0 (baseline); for Number of survived animals, Day 4 / Number of survived animals, Day 5 / Number of survived animals, Day 6 / Number of survived animals, Day 7 / Number of survived animals, Day 8 / Number of survived animals, Day 10: of 10", "protocol": "(§1) As the comparative control, test solutions of adriamycin were prepared in the same manner. […] The number with time of survived animals after administration and the average body weights on Days 0, 5, and 10 were determined."}, "[3]": {"assay": "Repeated administration toxicity test (intraperitoneal)", "format": "in vivo, mouse (CDF1)", "settings": "mouse, in vivo, ip, read-out: Fatality rate", "protocol": "as §1"}, "P388/ADR": {"tested_on": "P388/ADR", "assay": "Mouse in vivo antitumor test, P388/ADR transplanted", "protocol": "(§2) 2×10^5 cells of P388 or P388/ADR were inoculated intraperitoneally into each of CDF1 mice (male, each weighing 20 g, 10 animals/group), and from the next day, the test solution was administered at 10, 5, and 1 mg/kg body weight/day respectively by intraperitoneal injection of 200 μl sample at each concentration once a day for 10 successive days. The numbers with time of mice which survived after administration was counted and the average survival days and T/C (survival days of treated mice/survival days of control mice) were calculated. The average body weights after 10 days were also measured."}, "[4]": {"tested_on": "adriamycin-resistant P388", "assay": "Cytotoxicity test on adriamycin-resistant P388 (P388/ADR) (MTT, 72 h)", "format": "cell-based", "settings": "Mus musculus, P388, 72 h, read-out: IC50 (growth inhibition)", "protocol": "(§3) Cultured tumor cell lines P388 and P388/ADR were suspended in RPMI1640 medium containing 10% heat inactivated fetal calf serum (FCS) and 20 μM 2-mercaptoethanol whereby a cell suspension (5×10^4 cells/ml) was prepared.\nA sample examined was dissolved in methanol, then diluted with RPMI 1640 medium and subjected to serial 2-fold dilution starting at the concentration of 0.1 mg/ml. 180 μl of the cell suspension and 20 μl of the sample solution were added into a 96-well micro-titer plate and incubated at 37° C. in wet 5% CO2 gas/95% air. 72 hours thereafter, cell growth was measured by a calorimetric assay method using 3-(4,5-dimethyl-2-thiazolyl)-2,5-diphenyl-2H-tetrazolium bromide (MTT) as follows: 20 μl of 2 mg/ml MTT solution was added to each well and the cells were incubated for 4 hours at 37° C. Thereafter, 50 μl of 50% dimethylformamide solution containing 20% sodium dodecyl sulfate was added to each well and allowed to stand, so that the formed violet formazan crystal was dissolved, and its absorbance at 570 nm was measured in a microplate absorbance photometer (Immunoreader) and used as an indicator of the growth. The result was expressed in terms of the concentration of a sample at which growth was inhibited by 50% (IC50), which was determined from the relationship between sample concentrations and degrees of inhibition calculated using the following equation (1):\n(§4) Degree of inhibition=[1-(absorbance in presence of sample)/(absorbance in\n(§5) absence of sample)]×100 (1)"}, "P388 [5]": {"tested_on": "P388", "assay": "Cytotoxicity test on cultured tumor cell line P388 (MTT, 72 h)", "format": "cell-based", "settings": "Mus musculus, P388, 72 h, read-out: IC50 (growth inhibition)", "protocol": "as §3\n72 hours thereafter, cell growth was measured by a calorimetric assay method using 3-(4,5-dimethyl-2-thiazolyl)-2,5-diphenyl-2H-tetrazolium bromide (MTT) as follows: 20 μl of 2 mg/ml MTT solution was added to each well and the cells were incubated for 4 hours at 37° C. Thereafter, 50 μl of 50% dimethylformamide solution containing 20% sodium dodecyl sulfate was added to each well and allowed to stand, so that the formed violet formazan crystal was dissolved, and its absorbance at 570 nm was measured in a microplate absorbance photometer (Immunoreader) and used as an indicator of the growth.\nas §4, §5"}, "P388 [6]": {"tested_on": "P388", "assay": "Mouse in vivo antitumor test, P388 transplanted", "protocol": "as §2"}, "[7]": {"settings": "P388/ADR, 1 mg/kg/day i.p. × 10 days"}, "[8]": {"settings": "P388/ADR, 5 mg/kg/day i.p. × 10 days"}, "[9]": {"settings": "P388/ADR, 10 mg/kg/day i.p. × 10 days"}, "[10]": {"settings": "P388, 1 mg/kg/day i.p. × 10 days"}, "[11]": {"settings": "P388, 5 mg/kg/day i.p. × 10 days"}, "[12]": {"settings": "P388, 10 mg/kg/day i.p. × 10 days"}}, "note": "Where two headings read alike, the source gives them in different places."}
{"smiles": "C=CC[C@@H]1/C=C(\\C)C[C@H](C)C[C@H](OC)[C@H]2O[C@@](O)(C(=O)C(=O)N3CCCC[C@H]3C(=O)O[C@H](/C(C)=C/[C@@H]3CC[C@@H](O)[C@H](OC)C3)[C@H](C)[C@@H](O)CC1=O)[C@H](C)C[C@@H]2OC", "note": "[tacrorims (FK506)]", "values": [{"measurement": "side effects", "setting": "[1]", "value": "obstacles to the pancreas and kidney"}, {"measurement": "immunosuppressive results", "setting": "[2]", "value": "preferable results"}]}
{"smiles": "COc1cccc2c1C(=O)c1c(O)c3c(c(O)c1C2=O)C[C@@](O)(C(=O)CO)C[C@@H]3O[C@H]1C[C@H](N)[C@H](O)[C@H](C)O1", "note": "[Adriamycin]", "values": [{"measurement": "Body weight, Day 0", "setting": "CDF1 mice; 1 mg/kg/day i.p. group", "value": 21.9, "unit": "g"}, {"measurement": "Number of survived animals, Day 4", "setting": "CDF1 mice; 1 mg/kg/day i.p. × 10 days", "value": 10}, {"measurement": "Number of survived animals, Day 5", "setting": "CDF1 mice; 1 mg/kg/day i.p. × 10 days", "value": 10}, {"measurement": "Number of survived animals, Day 6", "setting": "CDF1 mice; 1 mg/kg/day i.p. × 10 days", "value": 10}, {"measurement": "Number of survived animals, Day 7", "setting": "CDF1 mice; 1 mg/kg/day i.p. × 10 days", "value": 10}, {"measurement": "Number of survived animals, Day 8", "setting": "CDF1 mice; 1 mg/kg/day i.p. × 10 days", "value": 10}, {"measurement": "Number of survived animals, Day 10", "setting": "CDF1 mice; 1 mg/kg/day i.p. × 10 days", "value": 10}, {"measurement": "Body weight, Day 5", "setting": "CDF1 mice; 1 mg/kg/day i.p.", "value": 23.5, "unit": "g"}, {"measurement": "Body weight, Day 10", "setting": "CDF1 mice; 1 mg/kg/day i.p.", "value": 24.5, "unit": "g"}, {"measurement": "Body weight, Day 0", "setting": "CDF1 mice; 5 mg/kg/day i.p. group", "value": 21.6, "unit": "g"}, {"measurement": "Number of survived animals, Day 4", "setting": "CDF1 mice; 5 mg/kg/day i.p. × 10 days", "value": 10}, {"measurement": "Number of survived animals, Day 5", "setting": "CDF1 mice; 5 mg/kg/day i.p. × 10 days", "value": 9}, {"measurement": "Number of survived animals, Day 6", "setting": "CDF1 mice; 5 mg/kg/day i.p. × 10 days", "value": 9}, {"measurement": "Number of survived animals, Day 7", "setting": "CDF1 mice; 5 mg/kg/day i.p. × 10 days", "value": 8}, {"measurement": "Number of survived animals, Day 8", "setting": "CDF1 mice; 5 mg/kg/day i.p. × 10 days", "value": 3}, {"measurement": "Number of survived animals, Day 10", "setting": "CDF1 mice; 5 mg/kg/day i.p. × 10 days", "value": 3}, {"measurement": "Body weight, Day 5", "setting": "CDF1 mice; 5 mg/kg/day i.p.", "value": 21.0, "unit": "g"}, {"measurement": "Body weight, Day 10", "setting": "CDF1 mice; 5 mg/kg/day i.p.", "value": 15.8, "unit": "g"}, {"measurement": "Body weight, Day 0", "setting": "CDF1 mice; 10 mg/kg/day i.p. group", "value": 21.8, "unit": "g"}, {"measurement": "Number of survived animals, Day 4", "setting": "CDF1 mice; 10 mg/kg/day i.p. × 10 days", "value": 10}, {"measurement": "Number of survived animals, Day 5", "setting": "CDF1 mice; 10 mg/kg/day i.p. × 10 days", "value": 9}, {"measurement": "Number of survived animals, Day 6", "setting": "CDF1 mice; 10 mg/kg/day i.p. × 10 days", "value": 8}, {"measurement": "Number of survived animals, Day 7", "setting": "CDF1 mice; 10 mg/kg/day i.p. × 10 days", "value": 3}, {"measurement": "Number of survived animals, Day 8", "setting": "CDF1 mice; 10 mg/kg/day i.p. × 10 days", "value": 0}, {"measurement": "Number of survived animals, Day 10", "setting": "CDF1 mice; 10 mg/kg/day i.p. × 10 days", "value": 0}, {"measurement": "Body weight, Day 5", "setting": "CDF1 mice; 10 mg/kg/day i.p.", "value": 17.7, "unit": "g"}, {"measurement": "survival in repeated administration", "setting": "CDF1 mice; i.p. 10 days, in words", "value": "some animals in the group given adriamycin died"}, {"measurement": "growth / body weight in repeated administration", "setting": "CDF1 mice; i.p. 10 days, in words, vs control", "value": "growth was inferior to the control"}, {"measurement": "mortality", "setting": "[3]; 1 mg/kg/day i.p. × 10 days", "value": 0, "unit": "%"}, {"measurement": "mortality", "setting": "[3]; 5 mg/kg/day i.p. × 10 days", "value": 70, "unit": "%"}, {"measurement": "mortality", "setting": "[3]; 10 mg/kg/day i.p. × 10 days", "value": 100, "unit": "%"}, {"measurement": "T/C", "setting": "P388/ADR; [7]", "value": 96, "unit": "%"}, {"measurement": "average body weight after 10 days", "setting": "P388/ADR; [7]", "value": 23.5, "unit": "g"}, {"measurement": "average survival days", "setting": "P388/ADR; [7]", "value": 10.7, "unit": "days"}, {"measurement": "T/C", "setting": "P388/ADR; [8]", "value": 63, "unit": "%"}, {"measurement": "average survival days", "setting": "P388/ADR; [8]", "value": 7.0, "unit": "days"}, {"measurement": "T/C", "setting": "P388/ADR; [9]", "value": 68, "unit": "%"}, {"measurement": "average survival days", "setting": "P388/ADR; [9]", "value": 7.5, "unit": "days"}, {"measurement": "therapeutic effect", "setting": "P388/ADR; P388/ADR-transplanted mice", "value": "did not show therapeutic effect"}, {"measurement": "IC50", "setting": "[4]", "value": 0.53, "unit": "µg/mL"}, {"measurement": "IC50", "setting": "P388 [5]", "value": 0.027, "unit": "µg/mL"}, {"measurement": "T/C", "setting": "P388 [6]; [10]", "value": 120, "unit": "%"}, {"measurement": "average survival days", "setting": "P388 [6]; [10]", "value": 12.4, "unit": "days"}, {"measurement": "T/C", "setting": "P388 [6]; [11]", "value": 81, "unit": "%"}, {"measurement": "average survival days", "setting": "P388 [6]; [11]", "value": 8.4, "unit": "days"}, {"measurement": "T/C", "setting": "P388 [6]; [12]", "value": 76, "unit": "%"}, {"measurement": "average survival days", "setting": "P388 [6]; [12]", "value": 7.8, "unit": "days"}, {"measurement": "therapeutic effect (improvement in survival rate)", "setting": "P388 [6]; P388-transplanted mice, adriamycin 1 mg/kg/day vs 0406TP-1", "value": "same degree of therapeutic effect"}, {"measurement": "therapeutic effect at high dosage", "setting": "P388 [6]; more than 5 mg/kg body weight/day, due to its toxicity", "value": "did not show therapeutic effect"}]}
